The source of these data is publication PMC2644263 (Molecular cell, 2008).

In this assay the target is Bub1 (Homo sapiens, UniProt O43683). Put plainly: in vitro […] kinase assay with purified kinase, […] ATP, phosphoimager. The format is biochemical.

What is called IC50 is the concentration needed to halve the response being measured.

Bub1, sequence (O43683 724-1085): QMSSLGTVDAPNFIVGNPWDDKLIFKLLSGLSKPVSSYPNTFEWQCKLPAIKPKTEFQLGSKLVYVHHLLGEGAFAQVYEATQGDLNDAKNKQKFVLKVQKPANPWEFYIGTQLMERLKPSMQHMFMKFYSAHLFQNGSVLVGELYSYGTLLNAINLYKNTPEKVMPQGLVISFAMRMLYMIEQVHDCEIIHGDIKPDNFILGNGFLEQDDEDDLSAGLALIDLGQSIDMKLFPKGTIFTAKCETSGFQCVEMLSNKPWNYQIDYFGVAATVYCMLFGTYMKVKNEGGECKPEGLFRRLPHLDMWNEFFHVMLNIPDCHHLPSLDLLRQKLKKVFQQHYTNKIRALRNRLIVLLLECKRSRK

The compound `CC(C)(C)n1nc(Cc2ccccc2O)c2c(N)ncnc21` [2OH-BNPP1] yielded an IC50 of about 250 nM.
